{"source": "patent US20260232710A1", "about": "“AGENTS, COMPOSITIONS, AND METHODS FOR SUPPORTING BEHAVIOURAL DEVELOPMENT” (SOCIÉTÉ DES PRODUITS NESTLÉ S.A., priority 2023, published 2026)", "test_system": "human breast milk-fed infants", "experiment": "Regression association of breast milk HMO levels with IBQ-R negative affectivity in infants", "assay_type": "in vivo", "experimental": "In some embodiments, social-emotional skills are determined by an Infant Behavior Questionnaire (IBQ), such as the IBQ-Revised (IBQ-R). The “IBQ-R (revised Infant Behavior Questionnaire) questionnaire” is a widely used parent-report measure for assessing dimensions of temperament along 14 scales, as reported below, in infants between 3 and 12 months of age (see e.g. Gartstein, M. A. and Rothbart, M. K., 2003. Infant behavior and development, 26(1), pp. 64-86).\nThe subject's negative affectivity can be determined by any suitable method. In some embodiments, the subject's negative affectivity is determined by an Infant Behavior Questionnaire (IBQ), for example the IBQ-Revised (IBQ-R). For example, negative affectivity may be a domain constructed out of the following scales on the IBQ-R: sadness, fear, distress to limitations, activity level, and falling reactivity. The one or more HMOs according to the present invention may reduce sadness, fear, and/or distress to limitations. The one or more HMOs according to the present invention may improve activity level and/or rate of recovery from distress.\nA total of 195 infants were tested. Breastmilk HMO levels were tested in breastmilk collected at two months and three months. Infant behaviours were assessed with an Infant Behaviour Questionnaire-Revised (IBQ-R). […]"}
{"substance": "Lacto-N-difucohexaose I [LNDFHI]", "values": [{"measurement": "IBQR", "setting": "breast milk collected at 2 months, negative affectivity of infants at 9 months, N=195", "value": "Reduced"}, {"measurement": "association with negative emotions in infants", "setting": "infants at 9 months, breast milk HMO levels", "value": "associated with reduction in negative emotions"}]}
